Where two headings read alike, the source gives them in different places.
Columns and labels:
[1] = molecular target: T1, E. coli FtsZ (Escherichia coli, UniProt P0A9A6); experiment: FtsZ GTPase assay (malachite green); type: biochemical
T1 construct: made in house; host or cells: E. coli BL21(λDE3)
Description: GTPase Assay: Untagged E. coli FtsZ was expressed from pET-3Z^+ in BL21(λDE3) cells (RayChaudhuri, D.; Park, J. T. Nature 1992, 359, 251-254) and purified using a two-step ammonium sulfate fractionation (Romberg et al. J. Biol. Chem. 2001, 276, 11743-11753). FtsZ GTPase assay was performed essentially as described by Margalit et al. (Margalit et al. Proc. Natl. Acad. Sci. U.S.A. 2004, 101, 11821-11826). Briefly, 2 μM E. coli FtsZ in polymerization buffer (4-morpholinepropanesulfonic acid, pH 6.5, 50 mM KCl, 5 mM MgCl2) was preincubated with or without varying concentrations of test compounds (in dimethyl sulfoxide, DMSO) such that the DMSO concentrations in the samples were ˜2%. The control tubes received 2% DMSO alone. After a 5-min preincubation at 25° C., the reactions were initiated by adding 0.5 mM GTP. Aliquots were withdrawn after 5, 15 and 25 ininute intervals and quenched with 50 mM EDTA before color development with the malachite green solution [2 volumes malachite green (0.8 mg/ml)/1 volume polyvinyl alcohol (23.2 mg/ml)/1 volume ammonium molybdate (57.2 mg/ml in 2H2O:3HCl)/2 volumes H2O]. IC50 values were determined from the relative slopes of GTP hydrolysis at different inhibitor concentrations compared to the control with DMSO only.

[2] = molecular target: T1, E. coli FtsZ; settings: value from Margalit et al. 2004 (footnote a); read-out: Inhibition of E. coli FtsZ GTPase activity, IC50; cited from earlier work
[3] = tested on: B. subtilis; settings: cited from earlier work
[4] = tested on: P. aeruginosa; settings: dash with footnote b = no significant activity; cited from earlier work
[5] = tested on: S. aureus; settings: cited from earlier work
[6] = tested on: E. coli; settings: dash with footnote b = no significant activity; cited from earlier work
[7] = tested on: M. smegmatis; settings: cited from earlier work
[8] = tested on: bacterial strains; settings: higher MICs indicate that a strain is becoming resistant; cited from earlier work
[9] = 2 μM E. coli FtsZ, 0.5 mM GTP, pH 6.5, 25° C., read-out: Inhibition of E. coli FtsZ GTPase activity, IC50

T1 sequence (P0A9A6 whole entry): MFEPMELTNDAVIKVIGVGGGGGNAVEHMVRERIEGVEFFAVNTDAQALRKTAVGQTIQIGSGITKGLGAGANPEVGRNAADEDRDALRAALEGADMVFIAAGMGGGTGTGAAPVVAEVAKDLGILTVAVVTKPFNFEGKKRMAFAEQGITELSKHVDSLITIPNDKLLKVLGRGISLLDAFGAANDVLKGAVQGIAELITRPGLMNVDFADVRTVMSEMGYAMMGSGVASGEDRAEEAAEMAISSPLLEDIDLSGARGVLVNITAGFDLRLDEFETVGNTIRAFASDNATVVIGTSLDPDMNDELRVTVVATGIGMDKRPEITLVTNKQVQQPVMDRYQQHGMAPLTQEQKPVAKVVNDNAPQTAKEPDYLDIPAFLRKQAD

Row | Structure (SMILES) | Antimicrobial activities (MICs) B. subtilis [3] [µM] | Antimicrobial activities (MICs) S. aureus [5] [µM] | Inhibition of E. coli GTPase activity, in words [1] | effective MIC defined by NCCLS [8] [µM] | other results
1 | CC1(C)CC(=O)c2c(O)c(Cc3ccccc3O)c(O)c(Cc3ccccc3O)c2O1 [5,7-dihydroxy-6,8-bis(2-hydroxybenzyl)-2,2-dimethylchroman-4-one] | – | – | – | – | IC50 ([1]; FIG. 27 legend, test not named, presumably FtsZ GTPase, read-out: IC50): 21 µM
2 | Oc1ccc(Cl)cc1Cc1cc(Cl)cc(Cc2cc(Cl)ccc2O)c1O [Compound 1, Zantrin Z1, reference compound] | 1.25 | 2.5 | – | – | IC50 [2]: 5 ± 0.5 µM; Antimicrobial activities (MICs) P. aeruginosa [4]: 40 µM; Antimicrobial activities (MICs) E. coli [6]: 20 µM
3 | O=C1C[C@@H](c2ccccc2)Oc2c(Cc3ccccc3O)c(O)c(Cc3ccccc3O)c(O)c21 (racemic) [Compound 2, (±)-Dichamanetin] | 1.7 | 1.7 | potent inhibitors | – | Antimicrobial activities (MICs) M. smegmatis [7]: 3.4 µM; IC50 [1, 9]: 12.5 ± 0.5 µM
4 | CN[C@H](CC(C)C)C(=O)N[C@H]1C(=O)N[C@@H](CC(N)=O)C(=O)N[C@H]2C(=O)N[C@H]3C(=O)N[C@H](C(=O)N[C@H](C(=O)O)c4cc(O)cc(O)c4-c4cc3ccc4O)[C@H](O)c3ccc(c(Cl)c3)Oc3cc2cc(c3O[C@@H]2O[C@H](CO)[C@@H](O)[C@H](O)[C@H]2O[C@H]2C[C@](C)(N)[C@H](O)[C@H](C)O2)Oc2ccc(cc2Cl)[C@H]1O [vancomycin] | – | – | – | 5.8 | –
5 | COc1cccc(OC)c1C(=O)N[C@@H]1C(=O)N2[C@@H]1SC(C)(C)[C@@H]2C(=O)O [methicillin] | – | – | – | 0.8 | –
6 | CC[C@H]1OC(=O)[C@H](C)[C@@H](O[C@H]2C[C@@](C)(OC)[C@@H](O)[C@H](C)O2)[C@H](C)[C@@H](O[C@@H]2O[C@H](C)C[C@H](N(C)C)[C@H]2O)[C@](C)(O)C[C@@H](C)C(=O)[C@H](C)[C@@H](O)[C@]1(C)O [erythromycin] | – | – | – | 0.4 | –
7 | O=C1C[C@@H](c2ccccc2)Oc2c(Cc3cc(Cc4ccccc4O)ccc3O)c(O)c(Cc3cc(Cc4ccccc4O)ccc3O)c(O)c21 (racemic) [Compound 3, (±)-2′″-Hydroxy-5″-benzylisouvarinol-B] | 2.6 | 10.7 | potent inhibitors | – | Antimicrobial activities (MICs) M. smegmatis [7]: 3.8 µM; Antimicrobial activities (MICs) P. aeruginosa [4]: 15.4 µM; Antimicrobial activities (MICs) E. coli [6]: 2.3 µM; IC50 [1]: 8.3 ± 0.5 µM
8 | CC(=O)c1c(O)c(Cc2ccccc2O)c(O)c(Cc2ccccc2O)c1O [Compound 11, 2,4,6-Trihydroxy-3,5-di(2′-hydroxybenzyl)-acetophenone] | – | – | much less potent | – | IC50 [1, 9]: 60.4 ± 2.2 µM
